Reference: patent publication US7772180B2, “Hepatitis C virus inhibitors” (Bristol-Myers Squibb Company, priority 2006, dated 2010)
Where two headings read alike, the source gives them in different places.

Assays:
[1] = tested on: HCV replicon (strain 1b) in HUH-7 cells; test: HCV replicon FRET assay; type: cell-based, Hepatitis C virus
From the text: An HCV replicon whole cell system was established as described by Lohmann V, Korner F, Koch J, Herian U, Theilmann L, Bartenschlager R., Science 285(5424): 110-3 (1999). This system enabled us to evaluate the effects of our HCV Protease compounds on HCV RNA replication. Briefly, using the HCV strain 1b sequence described in the Lohmann paper (Assession number: AJ238799), an HCV cDNA was synthesized by Operon Technologies, Inc. (Alameda, Calif.), and the full-length replicon was then assembled in plasmid pGem9zf(+) (Promega, Madison, Wis.) using standard molecular biology techniques. The replicon consists of (i) the HCV 5′ UTR fused to the first 12 amino acids of the capsid protein, (ii) the neomycin phosphotransferase gene (neo), (iii) the IRES from encephalomyocarditis virus (EMCV), and (iv) HCV NS3 to NS5B genes and the HCV 3′ UTR. Plasmid DNAs were linearized with ScaI and RNA transcripts were synthesized in vitro using the T7 MegaScript transcription kit (Ambion, Austin, Tex.) according to manufacturer's directions. In vitro transcripts of the cDNA were transfected into the human hepatoma cell line, HUH-7. […] Resulting cell lines were characterized for positive and negative strand RNA production and protein production over time.
The HCV replicon FRET assay was developed to monitor the inhibitory effects of compounds described in the disclosure on HCV viral replication. HUH-7 cells, constitutively expressing the HCV replicon, were grown in Dulbecco's Modified Eagle Media (DMEM) (Gibco-BRL) containing 10% Fetal calf serum (FCS) (Sigma) and 1 mg/ml G418 (Gibco-BRL). Cells were seeded the night before (1.5×10^4 cells/well) in 96-well tissue-culture sterile plates. Compound and no compound controls were prepared in DMEM containing 4% FCS, 1:100 Penicillin/Streptomysin (Gibco-BRL), 1:100 L-glutamine and 5% DMSO in the dilution plate (0.5% DMSO final concentration in the assay). Compound/DMSO mixes were added to the cells and incubated for 4 days at 37° C. After 4 days, cells were first assessed for cytotoxicity using alamar Blue (Trek Diagnotstic Systems) for a CC50 reading. The toxicity of compound (CC50) was determined by adding 1/10th volume of alamarBlue to the media incubating the cells. After 4 hours, the fluorescence signal from each well was read, with an excitation wavelength at 530 nm and an emission wavelength of 580 nm, using the Cytofluor Series 4000 (Perspective Biosystems). Plates were then rinsed thoroughly with Phosphate-Buffered Saline (PBS) (3 times 150 μl).

[2] = biological target: T1, HCV NS3/4A protease complex, BMS strain (UniProt P27958, species not given/STRAIN_BMS); test: FRET peptide assay to monitor HCV NS3/4A proteolytic activity (BMS strain); type: biochemical, Hepatitis C virus (genotype 1a)
T1 construct: other: NS3/4A BMS strain; activity range class; numeric values, unit not given; said of H77 and J4L6S; fused on or other part: A three-lysine solubilising tail at the C-terminus of NS4A; A His tag is implied by the pET21b vector and Ni-NTA purification; Both are printed for the H77 and J4L6S constructs and apply to BMS by inference
T1 sequence (P27958 1027-1657, change not shown, one chain of several): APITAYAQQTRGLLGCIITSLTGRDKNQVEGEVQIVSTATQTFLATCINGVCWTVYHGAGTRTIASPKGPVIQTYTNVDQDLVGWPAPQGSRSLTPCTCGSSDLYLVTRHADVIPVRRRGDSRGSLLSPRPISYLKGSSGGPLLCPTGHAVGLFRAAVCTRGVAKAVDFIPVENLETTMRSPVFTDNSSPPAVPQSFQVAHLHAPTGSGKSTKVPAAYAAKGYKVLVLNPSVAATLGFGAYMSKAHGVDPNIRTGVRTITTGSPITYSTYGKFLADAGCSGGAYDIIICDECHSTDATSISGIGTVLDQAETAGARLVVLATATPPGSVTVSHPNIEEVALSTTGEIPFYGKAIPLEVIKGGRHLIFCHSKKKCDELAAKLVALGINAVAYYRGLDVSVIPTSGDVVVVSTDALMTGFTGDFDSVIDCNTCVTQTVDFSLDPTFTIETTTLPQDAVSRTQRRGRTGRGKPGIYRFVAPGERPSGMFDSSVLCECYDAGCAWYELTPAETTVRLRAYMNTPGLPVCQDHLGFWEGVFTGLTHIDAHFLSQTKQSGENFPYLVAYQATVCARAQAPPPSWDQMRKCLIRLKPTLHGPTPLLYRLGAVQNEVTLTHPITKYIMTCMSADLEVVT
From the text: HCV NS3 protease complexes, derived from the BMS strain, H77 strain or J4L6S strain, were generated, as described below. These purified recombinant proteins were generated for use in a homogeneous assay (see below) to provide an indication of how effective compounds of the present disclosure would be in inhibiting HCV NS3 proteolytic activity.
Serum from an HCV-infected patient was obtained from Dr. T. Wright, San Francisco Hospital. An engineered full-length cDNA (compliment deoxyribonucleic acid) template of the HCV genome (BMS strain) was constructed from DNA fragments obtained by reverse transcription-PCR (RT-PCR) of serum RNA (ribonucleic acid) and using primers selected on the basis of homology between other genotype 1a strains. From the determination of the entire genome sequence, a genotype 1a was assigned to the HCV isolate according to the classification of Simmonds et al. (See P Simmonds, K A Rose, S Graham, S W Chan, F McOmish, B C Dow, E A Follett, P L Yap and H Marsden, J. Clin. Microbiol., 31(6), 1493-1503 (1993)). […] The infectious clones, H77 (1a genotype) and J4L6S (1b genotype) were obtained from R. Purcell (NIH) and the sequences are published in Genbank (AAB67036, see Yanagi, M., Purcell, R. H., Emerson, S. U. and Bukh, J. Proc. Natl. Acad. Sci. U.S.A. 94(16), 8738-8743 (1997); AF054247, see Yanagi, M., St Claire, M., Shapiro, M., Emerson, S. U., Purcell, R. H. and Bukh, J. Virology 244 (1), 161-172. (1998)).
NS3/4A protease complex-containing fractions were pooled and loaded on a desalting column Superdex-S200 pre-equilibrated with buffer D (25 mM HEPES, pH 7.5, 20% glycerol, 300 mM NaCl, 0.2% Triton X-100, 10 mM βME). Sample was loaded at a flow rate of 1 mL/min. NS3/4A protease complex-containing fractions were pooled and concentrated to approximately 0.5 mg/ml. The purity of the NS3/4A protease complexes, derived from the BMS, H77 and J4L6S strains, were judged to be greater than 90% by SDS-PAGE and mass spectrometry analyses. The enzyme was stored at −80° C., thawed on ice and diluted prior to use in assay buffer.
The purpose of this in vitro assay was to measure the inhibition of HCV NS3 protease complexes, derived from the BMS strain, H77 strain or J4L6S strain, as described above, by compounds of the present disclosure. This assay provides an indication of how effective compounds of the present disclosure would be in inhibiting HCV NS3 proteolytic activity.
In order to monitor HCV NS3/4A protease activity, an NS3/4A peptide substrate was used. The substrate was RET S1 (Resonance Energy Transfer Depsipeptide Substrate; AnaSpec, Inc. cat #22991) (FRET peptide), described by Taliani et al. in Anal. Biochem. 240(2):60-67 (1996). The sequence of this peptide is loosely based on the NS4A/NS4B natural cleavage site for the HCV NS3 protease except there is an ester linkage rather than an amide bond at the cleavage site. The peptide also contains a fluorescence donor, EDANS, near one end of the peptide and an acceptor, DABCYL, near the other end. The fluorescence of the peptide is quenched by […] resonance energy transfer (RET) between the donor and the acceptor, but as the NS3 protease cleaves the peptide the products are released from RET quenching and the fluorescence of the donor becomes apparent.
The peptide substrate was incubated with one of the three recombinant NS3/4A protease complexes, in the absence or presence of a compound of the present disclosure. The inhibitory effects of a compound were determined by monitoring the formation of fluorescent reaction product in real time using a Cytofluor Series 4000.
Assay buffer: 50 mM HEPES, pH 7.5; 0.15 M NaCl; 0.1% Triton; 15% Glycerol; 10 mM βME. Substrate: 2 μM final concentration (from a 2 mM stock solution in DMSO stored at −20° C.). HCV NS3/4A protease type 1a (1b), 2-3 nM final concentration (from a 5 μM stock solution in 25 mM HEPES, pH 7.5, 20% glycerol, 300 mM NaCl, 0.2% Triton-X100, 10 mM βME). […]

[3] = Hepatitis C virus, Huh-7, read-out: HCV Pro Replicon (EC50), HCV replicon cell assay, activity range class
[4] = read-out: HCV Protease (IC50); NS3/4A BMS strain; activity range class

Compound	EC50 [1, 3]	IC50 [2, 4]	further results
C=C[C@@H]1C[C@]1(NC(=O)[C@@H]1C[C@@H](Oc2ncc(OC)c3ccc(Cl)cc23)CN1C(=O)[C@@H](Nc1cccc(C(=O)OC)c1)C(C)(C)C)C(=O)NS(=O)(=O)C1CC1 [232 first isomer, N-(3-(methoxycarbonyl)phenyl)-3-methyl-L-valyl-(4R)-4-((7-chloro-4-methoxy-1-isoquinolinyl)oxy)-N-((1R,2S)-1-((cyclopropylsulfonyl)carbamoyl)-2-vinylcyclopropyl)-L-prolinamide]	3 to 100 nM	0.6 to 20 nM	
C=C[C@@H]1C[C@]1(NC(=O)[C@@H]1C[C@@H](Oc2ncc(OC)c3ccc(Cl)cc23)CN1C(=O)[C@@H](Nc1cccc(C(=O)OC(C)(C)C)c1)C(C)(C)C)C(=O)NS(=O)(=O)C1CC1 [210 first isomer, N-(3-(tert-butoxycarbonyl)phenyl)-3-methyl-L-valyl-(4R)-4-((7-chloro-4-methoxy-1-isoquinolinyl)oxy)-N-((1R,2S)-1-((cyclopropylsulfonyl)carbamoyl)-2-vinylcyclopropyl)-L-prolinamide]	3 to 100 nM	0.6 to 20 nM	
C=C[C@@H]1C[C@]1(NC(=O)[C@@H]1C[C@@H](Oc2ncc(OC)c3ccc(Cl)cc23)CN1C(=O)[C@@H](Nc1cccc(C(=O)OC(C)C)c1)C(C)(C)C)C(=O)NS(=O)(=O)C1CC1 [231 first isomer, N-(3-(isopropoxycarbonyl)phenyl)-3-methyl-L-valyl-(4R)-4-((7-chloro-4-methoxy-1-isoquinolinyl)oxy)-N-((1R,2S)-1-((cyclopropylsulfonyl)carbamoyl)-2-vinylcyclopropyl)-L-prolinamide]	3 to 100 nM	0.6 to 20 nM	
C=C[C@@H]1C[C@]1(NC(=O)[C@@H]1C[C@@H](Oc2nccc3cc(OC)ccc23)CN1C(=O)C(Nc1cc(C)cc(C)n1)C(C)C)C(=O)NS(=O)(=O)N(C)C (single isomer, unassigned) [Compound 16]	3 to 100 nM	0.6 to 20 nM	
(4R)-4-((7-chloro-4-methoxy-1-isoquinolinyl)oxy)-N-((1R,2S)-1-((cyclopropylsulfonyl)carbamoyl)-2-vinylcyclopropyl)-1-((2R)-2-((4-ethoxy-1,2,5-thiadiazol-3-yl)amino)butanoyl)-L-prolinamide [Compound 233B]			EC50 ([1]; HCV replicon cell assay, numeric values, unit inferred, read-out: HCV Pro Replicon (EC50)): 2630 nM; IC50 ([2]; NS3/4A BMS strain; numeric values, unit inferred; read-out: HCV Protease (IC50)): 1300 nM
C=C[C@@H]1C[C@]1(NC(=O)[C@@H]1C[C@@H](Oc2ncc(OC)c3ccc(Cl)cc23)CN1C(=O)C(Nc1cncc(C)c1)C(C)(C)C)C(=O)NS(=O)(=O)C1CC1 (stereo partly drawn) [Compound 25, 3-methyl-N-(5-methyl-3-pyridinyl)valyl-(4R)-4-((7-chloro-4-methoxy-1-isoquinolinyl)oxy)-N-((1R,2S)-1-((cyclopropylsulfonyl)carbamoyl)-2-vinylcyclopropyl)-L-prolinamide]	3 to 100 nM	0.6 to 20 nM	
C=C[C@@H]1C[C@]1(NC(=O)[C@@H]1C[C@@H](Oc2ncc(OC)c3ccc(Cl)cc23)CN1C(=O)[C@@H](Nc1cccc(S(=O)(=O)NC(C)(C)C)c1)C(C)(C)C)C(=O)NS(=O)(=O)C1CC1 [206 first isomer, N-(3-(tert-butylsulfamoyl)phenyl)-3-methyl-L-valyl-(4R)-4-((7-chloro-4-methoxy-1-isoquinolinyl)oxy)-N-((1R,2S)-1-((cyclopropylsulfonyl)carbamoyl)-2-vinylcyclopropyl)-L-prolinamide]	3 to 100 nM	0.6 to 20 nM	
C=C[C@@H]1C[C@]1(NC(=O)[C@@H]1C[C@@H](Oc2ncc(OC)c3ccc(Cl)cc23)CN1C(=O)C(CC)Nc1nsnc1OC)C(=O)NS(=O)(=O)C1CC1 (stereo partly shown) [Compound 240]	100 to 1000 nM	0.6 to 20 nM	
C=C[C@@H]1C[C@]1(NC(=O)[C@@H]1C[C@@H](Oc2nccc3cc(OC)ccc23)CN1C(=O)C(Nc1cc(OC)ccn1)C(C)C)C(=O)NS(=O)(=O)C1CC1 (single isomer, unassigned) [Compound 8]	3 to 100 nM	20 to 200 nM	
C=C[C@@H]1C[C@]1(NC(=O)[C@@H]1C[C@@H](Oc2ncc(OC)c3ccc(Cl)cc23)CN1C(=O)[C@H](Nc1ccc(S(=O)(=O)N(C)C)cc1)C(C)(C)C)C(=O)NS(=O)(=O)C1CC1 [224 second isomer, N-(4-(dimethylsulfamoyl)phenyl)-3-methyl-D-valyl-(4R)-4-((7-chloro-4-methoxy-1-isoquinolinyl)oxy)-N-((1R,2S)-1-((cyclopropylsulfonyl)carbamoyl)-2-vinylcyclopropyl)-L-prolinamide]	100 to 1000 nM	> 200 nM	
C=C[C@@H]1C[C@]1(NC(=O)[C@@H]1C[C@@H](Oc2nccc3cc(OC)ccc23)CN1C(=O)[C@H](Nc1cc(C)cc(C)n1)C(C)C)C(=O)NS(=O)(=O)C1CC1 [Compound 1B, N-(4,6-dimethyl-2-pyridinyl)-D-valyl-(4R)—N-((1R,2S)-1-((cyclopropylsulfonyl)carbamoyl)-2-vinylcyclopropyl)-4-((6-methoxy-1-isoquinolinyl)oxy)-L-prolinamide]			EC50 ([1]; Hepatitis C virus, Huh-7, read-out: HCV Pro Replicon (EC50), HCV replicon cell assay, numeric values, unit inferred): 1640 nM; IC50 ([2]; read-out: HCV Protease (IC50); NS3/4A BMS strain; numeric values, unit inferred): 289 nM
